# Measured values published in PubChem BioAssay AID200 (DTP/NCI, 2004).
# Several values for one entry are separate records, joined by “and”; a condition that tells them apart may be missing. Identical values can stand only once. Toxic doses and inconclusive results are not listed.
# Tested on: B6C3F1 mice, B16 melanoma ip, median survival T/C
# Experiment: NCI In Vivo Anticancer Drug Screen. Data for tumor model B16 Melanoma (intraperitoneal) in B6C3F1 mice
# Conditions: endpoint: median survival time, higher = longer survival
# Method in brief: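 Antitumor effect was judged in mice with transplanted tumors by dividing the treated group's survival measure by that of vehicle controls.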
# [1] = dose: 25.0 mg/kg/injection, schedule: Q01DX009 (ip), vehicle: water
# [2] = dose: 100.0 mg/kg/injection, schedule: Q01DX009 (ip), vehicle: water
# [3] = dose: 12.5 mg/kg/injection, schedule: Q01DX009 (ip), vehicle: saline
# [4] = dose: 25.0 mg/kg/injection, schedule: Q01DX009 (ip), vehicle: saline with Tween-80
# [5] = dose: 25.0 mg/kg/injection, schedule: Q01DX009 (ip), vehicle: saline
# [6] = dose: 50.0 mg/kg/injection, schedule: Q01DX009 (ip), vehicle: saline
# [7] = dose: 100.0 mg/kg/injection, schedule: Q01DX009 (ip), vehicle: saline with Tween-80
# [8] = dose: 100.0 mg/kg/injection, schedule: Q01DX009 (ip), vehicle: saline
# [9] = dose: 12.5 mg/kg/injection, schedule: Q01DX009 (ip), vehicle: saline with Tween-80
# [10] = dose: 200.0 mg/kg/injection, schedule: Q01DX009 (ip), vehicle: saline
# [11] = dose: 3.12 mg/kg/injection, schedule: Q01DX009 (ip), vehicle: Klucel (hydroxypropylcellulose) (HPC)
# [12] = dose: 6.25 mg/kg/injection, schedule: Q01DX009 (ip), vehicle: Klucel (hydroxypropylcellulose) (HPC)
# [13] = dose: 12.5 mg/kg/injection, schedule: Q01DX009 (ip), vehicle: Klucel (hydroxypropylcellulose) (HPC)
# [14] = dose: 25.0 mg/kg/injection, schedule: Q01DX009 (ip), vehicle: Klucel (hydroxypropylcellulose) (HPC)
# [15] = dose: 50.0 mg/kg/injection, schedule: Q01DX009 (ip), vehicle: Klucel (hydroxypropylcellulose) (HPC)
# [16] = dose: 100.0 mg/kg/injection, schedule: Q01DX009 (ip), vehicle: Klucel (hydroxypropylcellulose) (HPC)
structure (smiles),measurement,setting,value
O=NNc1ncc(Br)cc1Br,T/C,"dose: 6.25 mg/kg/injection, schedule: Q01DX009 (ip), vehicle: water",108 % of control
same,T/C,"dose: 12.5 mg/kg/injection, schedule: Q01DX009 (ip), vehicle: water",114 % of control
same,T/C,[1],110 % of control
same,T/C,[2],98 % of control
COC(COC(=O)N1CCN(C=O)CC1)C1=C(N2CC2)C(=O)C(C)=C(N2CC2)C1=O (stereo unspecified),T/C,"dose: 1.5 mg/kg/injection, schedule: Q01DX009 (ip), vehicle: saline",160 % of control and 194 % of control
same,T/C,"dose: 3.0 mg/kg/injection, schedule: Q01DX009 (ip), vehicle: saline",173 % of control and 234 % of control
same,T/C,"dose: 6.0 mg/kg/injection, schedule: Q01DX009 (ip), vehicle: saline",254 % of control
CC1(C)COCN1COC1CCCCC1,T/C,"dose: 6.25 mg/kg/injection, schedule: Q01DX009 (ip), vehicle: saline",99 % of control
same,T/C,[3],114 % of control
same,T/C,[4],102 % of control
same,T/C,[5],99 % of control
same,T/C,"dose: 50.0 mg/kg/injection, schedule: Q01DX009 (ip), vehicle: saline with Tween-80",112 % of control
same,T/C,[6],114 % of control
same,T/C,[7],115 % of control
same,T/C,[8],106 % of control
CCCCCCCCCCCCNCCCc1ccccc1,T/C,[9],94 % of control
same,T/C,[4],93 % of control
CCN1/C(=C/C=C/C=C\C=C\c2sc3ccc4ccccc4c3[n+]2CC)Sc2ccc3ccccc3c21,T/C,"dose: 1.25 mg/kg/injection, schedule: Q01DX009 (ip), vehicle: saline with Tween-80",101 % of control
same,T/C,"dose: 1.25 mg/kg/injection, schedule: Q01DX009 (ip), vehicle: saline",124 % of control
same,T/C,"dose: 2.5 mg/kg/injection, schedule: Q01DX009 (ip), vehicle: saline with Tween-80",94 % of control
same,T/C,"dose: 2.5 mg/kg/injection, schedule: Q01DX009 (ip), vehicle: saline",123 % of control
c1cc[c]([Sn]([NH]c2ncnc3[nH]cnc23)([NH]c2ncnc3[nH]cnc23)[c]2ccccc2)cc1,T/C,[3],105 % of control
same,T/C,[5],100 % of control
same,T/C,[6],100 % of control
same,T/C,[8],106 % of control
same,T/C,[10],116 % of control
O=CC(O)C(O)C(O)C(O)CO (stereo unspecified),T/C,"dose: 75.0 mg/kg/injection, schedule: Q01DX009 (ip), vehicle: saline",95 % of control
same,T/C,"dose: 150.0 mg/kg/injection, schedule: Q01DX009 (ip), vehicle: saline",102 % of control
same,T/C,"dose: 300.0 mg/kg/injection, schedule: Q01DX009 (ip), vehicle: saline",103 % of control
same,T/C,"dose: 600.0 mg/kg/injection, schedule: Q01DX009 (ip), vehicle: saline",87 % of control
same,T/C,"dose: 1200.0 mg/kg/injection, schedule: Q01DX009 (ip), vehicle: saline",96 % of control
CN(C)N=Nc1ccc(Cl)c2ncccc12,T/C,"dose: 3.13 mg/kg/injection, schedule: Q01DX009 (ip), vehicle: other",115 % of control
same,T/C,"dose: 6.25 mg/kg/injection, schedule: Q01DX009 (ip), vehicle: other",106 % of control
same,T/C,"dose: 12.5 mg/kg/injection, schedule: Q01DX009 (ip), vehicle: other",109 % of control
same,T/C,"dose: 25.0 mg/kg/injection, schedule: Q01DX009 (ip), vehicle: other",117 % of control
same,T/C,"dose: 50.0 mg/kg/injection, schedule: Q01DX009 (ip), vehicle: other",114 % of control
CS(=O)(=O)Nc1ccc(C(=O)CCN2CCCCCC2)cc1,T/C,"dose: 25.0 mg/kg/injection, schedule: Q01DX009 (ip), vehicle: suspension in saline",122 % of control
same,T/C,"dose: 50.0 mg/kg/injection, schedule: Q01DX009 (ip), vehicle: suspension in saline",98 % of control
same,T/C,"dose: 100.0 mg/kg/injection, schedule: Q01DX009 (ip), vehicle: suspension in saline",96 % of control
same,T/C,"dose: 200.0 mg/kg/injection, schedule: Q01DX009 (ip), vehicle: suspension in saline",92 % of control
CN(C)CC(O)c1cc2ccccc2c2ccccc12 (stereo unspecified),T/C,[3],103 % of control
same,T/C,[5],103 % of control
Nc1ccc(C(=O)O)cc1,T/C,[11],100 % of control and 104 % of control
same,T/C,[12],114 % of control and 99 % of control and 103 % of control
same,T/C,[13],114 % of control and 101 % of control
same,T/C,[14],112 % of control and 90 % of control and 107 % of control
same,T/C,[1],98 % of control
same,T/C,[15],100 % of control
same,T/C,"dose: 50.0 mg/kg/injection, schedule: Q01DX009 (ip), vehicle: water",101 % of control
same,T/C,[16],117 % of control
same,T/C,[2],102 % of control
same,T/C,"dose: 200.0 mg/kg/injection, schedule: Q01DX009 (ip), vehicle: Klucel (hydroxypropylcellulose) (HPC)",105 % of control
C/C(=N\O)C(O)c1ccccc1 (stereo unspecified),T/C,[7],98 % of control
same,T/C,"dose: 200.0 mg/kg/injection, schedule: Q01DX009 (ip), vehicle: saline with Tween-80",107 % of control
same,T/C,"dose: 400.0 mg/kg/injection, schedule: Q01DX009 (ip), vehicle: saline with Tween-80",92 % of control
CC(=O)OCC12C3CC(=O)OC1C(OC(=O)C=C(C)C)C1C(C)=CC(=O)C(OC(C)=O)C1(C)C2C(=O)C(OC(C)=O)C3C (stereo unspecified),T/C,"dose: 0.5 mg/kg/injection, schedule: Q01DX009 (ip), vehicle: distilled water + Tween-80",93 % of control
same,T/C,"dose: 1.0 mg/kg/injection, schedule: Q01DX009 (ip), vehicle: distilled water + Tween-80",101 % of control
same,T/C,"dose: 2.0 mg/kg/injection, schedule: Q01DX009 (ip), vehicle: distilled water + Tween-80",118 % of control
same,T/C,"dose: 4.0 mg/kg/injection, schedule: Q01DX009 (ip), vehicle: distilled water + Tween-80",93 % of control
same,T/C,"dose: 8.0 mg/kg/injection, schedule: Q01DX009 (ip), vehicle: distilled water + Tween-80",98 % of control
COC1C(O)CC(OC2CC(Oc3cc4cc5c(c(O)c4c(O)c3C)C(=O)[C@@H](OC3CC(OC4CC(OC6CC(C)(O)C(OC(C)=O)C(C)O6)C(O)C(C)O4)C(O)C(C)O3)[C@H]([C@H](OC)C(=O)[C@@H](O)[C@@H](C)O)C5)OC(C)C2OC(C)=O)OC1C (stereo partly specified),T/C,"dose: 0.01 mg/kg/injection, schedule: Q01DX009 (ip), vehicle: Klucel (hydroxypropylcellulose) (HPC)",165 % of control
same,T/C,"dose: 0.04 mg/kg/injection, schedule: Q01DX009 (ip), vehicle: Klucel (hydroxypropylcellulose) (HPC)",151 % of control
same,T/C,"dose: 0.08 mg/kg/injection, schedule: Q01DX009 (ip), vehicle: Klucel (hydroxypropylcellulose) (HPC)",196 % of control
same,T/C,"dose: 0.16 mg/kg/injection, schedule: Q01DX009 (ip), vehicle: Klucel (hydroxypropylcellulose) (HPC)",171 % of control
CCCCCC[Se][Se]CCCCCC,T/C,"dose: 1.56 mg/kg/injection, schedule: Q01DX009 (ip), vehicle: Klucel (hydroxypropylcellulose) (HPC)",97 % of control
same,T/C,[11],106 % of control
same,T/C,[12],95 % of control
O=C(O)CC(NC(=O)CP(=O)(O)O)C(=O)O (stereo unspecified),T/C,[5],160 % of control
same,T/C,"dose: 37.5 mg/kg/injection, schedule: Q01DX005 (ip), vehicle: saline",121 % of control
same,T/C,"dose: 37.5 mg/kg/injection, schedule: Q01DX005 (iv), vehicle: saline",119 % of control
same,T/C,[6],172 % of control
same,T/C,"dose: 75.0 mg/kg/injection, schedule: Q01DX001 (ip), vehicle: saline",120 % of control
same,T/C,"dose: 75.0 mg/kg/injection, schedule: Q01DX001 (iv), vehicle: saline",110 % of control
same,T/C,"dose: 75.0 mg/kg/injection, schedule: Q01DX005 (iv), vehicle: saline",123 % of control
same,T/C,[8],202 % of control
same,T/C,"dose: 150.0 mg/kg/injection, schedule: Q01DX001 (iv), vehicle: saline",116 % of control
same,T/C,"dose: 150.0 mg/kg/injection, schedule: Q01DX005 (ip), vehicle: saline",178 % of control
same,T/C,"dose: 150.0 mg/kg/injection, schedule: Q01DX005 (iv), vehicle: saline",114 % of control
same,T/C,[10],226 % of control
same,T/C,"dose: 300.0 mg/kg/injection, schedule: Q01DX001 (iv), vehicle: saline",115 % of control
same,T/C,"dose: 300.0 mg/kg/injection, schedule: Q01DX005 (ip), vehicle: saline",163 % of control
O=C(O)CSc1c(Cl)c(=O)oc2ccc(Cl)cc12,T/C,[12],97 % of control
same,T/C,[13],95 % of control
same,T/C,[14],101 % of control
same,T/C,[15],107 % of control
same,T/C,[16],116 % of control
O=[n+]1c2ccccc2n([O-])c2ccccc21.[Cl][Ni][Cl],T/C,"dose: 1.56 mg/kg/injection, schedule: Q01DX009 (ip), vehicle: saline with Tween-80",103 % of control
same,T/C,"dose: 3.12 mg/kg/injection, schedule: Q01DX009 (ip), vehicle: saline with Tween-80",95 % of control
same,T/C,"dose: 6.25 mg/kg/injection, schedule: Q01DX009 (ip), vehicle: saline with Tween-80",97 % of control
same,T/C,[9],113 % of control
same,T/C,[4],91 % of control
